Data from article PMC2365111, “Cytotoxicity of Poly(Phenolic)Sulfonates and Their Sodium Salts in L1210 Lymphoid Leukemia Cells” (Metal-Based Drugs, 1998).

Legend:
[1] = test system: murine L1210 lymphoid leukemia; type: cell-based, mouse; settings: for ED50 converted to: converted from μg/ml
Description: (§1) CYTOTOXlCITY OF POLY(PHENOLIC)SULFONATES AND THEIR SODIUM SALTS IN L1210 LYMPHOID LEUKEMIA CELLS Fei Wang, Amy E. Warren, Cheryl R. Barnes and Iris H. Hall* Division of Medicinal Chemistry and Natural Products University of North Carolina Chapel Hill, N.C. […] Because ofthese properties it was surmised that these poly(phenolic)sulfonated compounds may have antineoplastic activity. METHODS Source of Compounds Test compounds were supplied by GeneLabs, Inc. [Redwood City, CA [Table 1]. Radioisotopes were obtained from New England Nuclear [Dupont, Boston, MA]. Substrates and co-factors were purchased om Sigma Chemical Co., [St Louis, MO]. Pentosan sulfate and other antineoplastic standards were obtained from Sigma Chemical Co. Tumor lines were obtained from American Type Culture Collection [Rockville, MD]. 147 Vol. 5, No. 3, 1998 Cytotoxicity ofSodium Poly(Phenolic)Sulfonates in L1210 Lymphoid Leukemia Cells Table 1 Structures of Poly(phenolic)sulfonate Compounds O2R" n Compound R' R" n MW # G1-2041 H OH 8 1489.46 G1-2029 H OH 6 1117.09 G1-2030 H OH 4 744.73 GI-2021 CH3 ONa 8 1777.5 G1-2057 CH3 ONa 4 888.75 GI-2158 CH3 ONa 6 1333.13 GI-2063 OCH3 ONa 8 2001.65 G1-2042 OAc ONa 8 2017.73 Cytotoxicity Poly(phenolic)sulfonates were tested for cytotoxic activity by homogenizing drug in 0.05% Tween 80/H20 to give a mg/ml stock concentration. These solutions were sterilized by passing them through an acrodisc ([…]). The following cell lines were maintained by literature techniques: murine L1210 lymphoid leukemia, P-388 lymphocytic leukemia, rat UMR 106 osteosarcoma, human Tmolt3 acute lymphoblastic T cell leukemia, HUT-8 lymphoma, HeLa-S suspended cervical carcinoma, HeLa solid cervical carcinoma, KB epidermoid nasopharynx, A431 epidermoid carcinoma, colorectal adenocarcinoma SW480, HCT-8 ileocecal adenocarcinoma, lung bronchogenic MB-9812, A549 lung carcinoma, and glioma HS683. Geran et al.'s protocol was used to assess the cytotoxicity of the compounds and standards in each cell line. Cell numbers were determined by the trypan blue exclusion technique. Solid tumor cytotoxicity was determined by Leibovitz et al. 's method utilizing crystal violeeOH and read at 562 nm (Molecular Devices). Values for cytotoxicity were expressed as EDs0 g/ml, i.e. the concentration ofthe compound inhibiting 50% ofcell growth. A value of less than 4 µg/ml was required for significant activity ofgrowth inhibition. Incorporation Studies Incorporation of labeled precursors into 3H-DNA, 3H -RNA and 3H -protein for 10 L1210 cells was obtained. The concentration response for inhibition of DNA, RNA and protein synthesis of the compounds at 25, 50 and 100 l.tM was determined for 60 min incubations. Incorporation of 14C -glycine (53.0 mCi/mmol) into purines was obtained by the method of Cadman et al.[12]. Incorporation of 4C- formate (53.0 mCi/mmol) into pyrimidines was determined by the method of Christopherson et al.[13]. Enzyme Assays Inhibition of various enzyme activities was performed by first preparing the appropriate L1210 cell homogenates or subcellular fractions, then adding the drug to be tested during the enzyme assay. For the concentration response studies, inhibition of enzyme activity was determined at 25, 50 and 100 l.tM of compounds G1-2021, G1-2029, GI-2041 and G1-2063 after 60 min incubations. DNA polymerase Ot activity was determined in cytoplasmic extracts isolated by Eichler et aL's method. The DNA polymerase assay was described by Sedwick et al.[15] using 3H-TTP. Messenger-, ribosomal- and transfer-RNA polymerase enzymes were isolated with different concentrations of ammonium sulfate; individual RNA polymerase activities were determined using 3H -UTP 16,17]. Ribonucleoside reductase activity was measured using 4C -CDP with dithioerythritol. The deoxyribonucleotides 4C -dCDP were separated from the ribonucleotides by TLC on PEI plates. […]

L1210 RNA synthesis = experiment: Incorporation of labeled precursor into RNA; type: cell-based, mouse; settings: 60 min, N=6
Description: as §1, with “Enzyme Assays Inhibition of various enzyme activities was performed by first preparing the appropriate L1210 cell homogenates or subcellular fractions, then adding the drug to be tested during the enzyme assay. For the concentration response studies, inhibition of enzyme activity was determined at 25, 50 and 100 l.tM of compounds G1-2021, G1-2029, GI-2041 and G1-2063 after 60 min incubations.” left out, “The DNA polymerase assay was described by Sedwick et al.[15] using 3H-TTP.” left out, “dithioerythritol.” for “dithioerythritol. The deoxyribonucleotides 4C -dCDP were separated from the ribonucleotides by TLC on PEI plates.”

DNA polymerase α = target: T1, DNA polymerase α (Mus musculus, UniProt P33609); experiment: DNA polymerase alpha activity, L1210 cytoplasmic extracts; type: biochemical; settings: for DNA polymerase α: 60 min, N=6; for DNA polymerase activity time course, in words: 50 μM over 2 hr
T1 construct: endogenous in cells; host or cells: L1210 murine lymphoid leukemia cells, cytoplasmic extract
T1 sequence (P33609 whole entry): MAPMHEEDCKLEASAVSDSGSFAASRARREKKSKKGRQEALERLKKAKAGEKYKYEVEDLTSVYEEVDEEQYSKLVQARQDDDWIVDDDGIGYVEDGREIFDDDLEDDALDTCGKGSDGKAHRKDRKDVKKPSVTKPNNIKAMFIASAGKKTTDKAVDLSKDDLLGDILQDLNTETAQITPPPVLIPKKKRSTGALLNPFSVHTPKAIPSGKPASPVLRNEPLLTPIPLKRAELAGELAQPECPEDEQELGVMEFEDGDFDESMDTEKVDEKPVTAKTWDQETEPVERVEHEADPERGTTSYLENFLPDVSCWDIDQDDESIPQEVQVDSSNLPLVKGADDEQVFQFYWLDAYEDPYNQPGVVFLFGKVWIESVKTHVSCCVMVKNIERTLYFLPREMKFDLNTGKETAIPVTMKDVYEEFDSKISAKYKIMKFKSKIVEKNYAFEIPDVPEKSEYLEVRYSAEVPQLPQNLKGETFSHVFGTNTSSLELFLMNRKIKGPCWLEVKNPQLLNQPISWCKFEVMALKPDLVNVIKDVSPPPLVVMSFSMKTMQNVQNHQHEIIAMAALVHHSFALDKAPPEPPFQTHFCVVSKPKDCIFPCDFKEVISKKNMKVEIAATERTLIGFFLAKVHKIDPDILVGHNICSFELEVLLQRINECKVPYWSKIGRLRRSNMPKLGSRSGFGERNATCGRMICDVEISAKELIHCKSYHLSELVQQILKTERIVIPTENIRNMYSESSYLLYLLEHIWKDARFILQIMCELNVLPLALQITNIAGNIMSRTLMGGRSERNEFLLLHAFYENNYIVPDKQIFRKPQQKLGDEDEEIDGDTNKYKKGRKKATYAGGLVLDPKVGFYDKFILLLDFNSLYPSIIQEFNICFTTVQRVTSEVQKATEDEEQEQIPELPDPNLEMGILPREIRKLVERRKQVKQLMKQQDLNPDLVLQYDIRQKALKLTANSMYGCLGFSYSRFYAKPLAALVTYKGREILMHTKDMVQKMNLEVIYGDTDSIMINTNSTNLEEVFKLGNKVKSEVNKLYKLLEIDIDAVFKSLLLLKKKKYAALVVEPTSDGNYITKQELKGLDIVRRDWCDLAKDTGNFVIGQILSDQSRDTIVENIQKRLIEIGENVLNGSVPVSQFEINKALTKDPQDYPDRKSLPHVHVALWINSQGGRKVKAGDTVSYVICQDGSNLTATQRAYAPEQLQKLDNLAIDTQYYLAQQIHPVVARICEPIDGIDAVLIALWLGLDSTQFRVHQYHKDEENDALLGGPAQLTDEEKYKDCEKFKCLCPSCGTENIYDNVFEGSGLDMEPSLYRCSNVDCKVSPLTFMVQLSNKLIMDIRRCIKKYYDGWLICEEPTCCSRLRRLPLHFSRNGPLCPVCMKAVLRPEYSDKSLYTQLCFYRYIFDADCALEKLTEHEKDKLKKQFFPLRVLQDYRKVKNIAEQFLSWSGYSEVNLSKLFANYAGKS
T1 sequence (P33611 whole entry partner): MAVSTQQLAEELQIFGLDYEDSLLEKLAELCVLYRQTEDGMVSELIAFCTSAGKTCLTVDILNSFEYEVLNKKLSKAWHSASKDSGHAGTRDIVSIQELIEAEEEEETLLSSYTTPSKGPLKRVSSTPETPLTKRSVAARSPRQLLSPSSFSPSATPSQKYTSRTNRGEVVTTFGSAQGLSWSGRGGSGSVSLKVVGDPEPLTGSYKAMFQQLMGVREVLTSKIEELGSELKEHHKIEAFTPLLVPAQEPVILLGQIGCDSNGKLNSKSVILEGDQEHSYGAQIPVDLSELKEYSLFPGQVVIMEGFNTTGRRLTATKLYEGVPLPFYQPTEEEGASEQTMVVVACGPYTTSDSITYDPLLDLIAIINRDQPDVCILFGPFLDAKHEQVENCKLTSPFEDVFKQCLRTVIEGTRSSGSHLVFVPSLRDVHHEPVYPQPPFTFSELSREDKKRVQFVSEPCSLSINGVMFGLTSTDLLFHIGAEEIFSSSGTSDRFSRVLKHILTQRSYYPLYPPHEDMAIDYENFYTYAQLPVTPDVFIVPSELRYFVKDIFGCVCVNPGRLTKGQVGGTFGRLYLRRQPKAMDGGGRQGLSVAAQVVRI
T1 sequence (P20664 whole entry partner): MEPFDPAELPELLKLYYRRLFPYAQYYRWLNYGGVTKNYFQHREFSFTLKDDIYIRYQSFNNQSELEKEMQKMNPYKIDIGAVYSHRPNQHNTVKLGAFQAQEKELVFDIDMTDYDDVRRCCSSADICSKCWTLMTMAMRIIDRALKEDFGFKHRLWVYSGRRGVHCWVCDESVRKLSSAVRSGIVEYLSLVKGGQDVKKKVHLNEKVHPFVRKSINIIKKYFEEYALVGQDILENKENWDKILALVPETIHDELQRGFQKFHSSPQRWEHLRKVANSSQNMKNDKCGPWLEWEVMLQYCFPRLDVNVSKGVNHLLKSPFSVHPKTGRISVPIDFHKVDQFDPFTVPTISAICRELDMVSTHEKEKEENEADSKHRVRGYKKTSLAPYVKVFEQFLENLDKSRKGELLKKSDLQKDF
T1 sequence (P33610 whole entry partner): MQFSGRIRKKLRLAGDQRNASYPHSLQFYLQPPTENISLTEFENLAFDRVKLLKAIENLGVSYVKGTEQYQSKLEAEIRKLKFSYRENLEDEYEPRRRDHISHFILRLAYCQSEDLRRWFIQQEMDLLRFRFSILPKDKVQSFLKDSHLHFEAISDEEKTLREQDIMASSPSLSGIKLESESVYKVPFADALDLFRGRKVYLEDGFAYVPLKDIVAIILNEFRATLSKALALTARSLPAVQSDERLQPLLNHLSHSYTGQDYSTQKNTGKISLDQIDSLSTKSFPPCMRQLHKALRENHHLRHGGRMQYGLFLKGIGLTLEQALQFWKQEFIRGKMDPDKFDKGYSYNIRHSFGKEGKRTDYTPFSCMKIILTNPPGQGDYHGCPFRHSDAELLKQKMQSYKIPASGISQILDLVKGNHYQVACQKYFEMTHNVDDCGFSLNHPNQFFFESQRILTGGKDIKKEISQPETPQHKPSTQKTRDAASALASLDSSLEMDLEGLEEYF
Description: as §1

tRNA polymerase = experiment: Transfer-RNA polymerase activity, L1210; type: biochemical, mouse; settings: 60 min, N=6
Description: as §1

Dihydrofolate reductase = target: T2, Dihydrofolate reductase (Mus musculus, UniProt P00375); experiment: Dihydrofolate reductase activity, L1210; type: biochemical; settings: for Dihydrofolate reductase: 60 min, N=6
T2 construct: preparing the appropriate L1210 cell homogenates or subcellular fractions; endogenous in cells; host or cells: L1210 murine lymphoid leukemia cells, homogenate or subcellular fraction
T2 sequence (P00375 1-187): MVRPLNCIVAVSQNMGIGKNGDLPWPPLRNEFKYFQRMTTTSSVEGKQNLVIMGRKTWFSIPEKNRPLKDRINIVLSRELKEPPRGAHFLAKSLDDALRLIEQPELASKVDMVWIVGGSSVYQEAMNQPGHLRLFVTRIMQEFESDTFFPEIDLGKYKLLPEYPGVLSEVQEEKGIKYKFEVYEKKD
Description: as §1

IMP dehydrogenase = IMP dehydrogenase activity, L1210; type: biochemical, mouse; settings: 60 min, N=6
Description: as §1, with “Enzyme Assays Inhibition of various enzyme activities was performed by first preparing the appropriate L1210 cell homogenates or subcellular fractions, then adding the drug to be tested during the enzyme assay. For the concentration response studies, inhibition of enzyme activity was determined at 25, 50 and 100 l.tM of compounds G1-2021, G1-2029, GI-2041 and G1-2063 after 60 min incubations.” left out, “The DNA polymerase assay was described by Sedwick et al.[15] using 3H-TTP.” left out, “dithioerythritol.” for “dithioerythritol. The deoxyribonucleotides 4C -dCDP were separated from the ribonucleotides by TLC on PEI plates.”

[2] = test system: L1210 de novo pyrimidine synthesis; experiment: 14C-formate incorporation into pyrimidines; type: cell-based, mouse; settings: 60 min, N=6
Description: as §1

[3] = target: T3, Carbamyl phosphate synthetase (Mus musculus, UniProt B2RQC6); experiment: Carbamyl phosphate synthetase activity, L1210; type: biochemical; settings: 60 min, N=6
T3 construct: preparing the appropriate L1210 cell homogenates or subcellular fractions; endogenous in cells; host or cells: L1210 murine lymphoid leukemia cells, homogenate or subcellular fraction
Description: as §1

[4] = target: T4, Aspartate transcarbamylase (Mus musculus, UniProt B2RQC6); experiment: Aspartate transcarbamylase activity, L1210; type: biochemical; settings: 60 min, N=6
T4 construct: preparing the appropriate L1210 cell homogenates or subcellular fractions; endogenous in cells; host or cells: L1210 murine lymphoid leukemia cells, homogenate or subcellular fraction
Description: as §1

Thymidylate synthetase = target: T5, Thymidylate synthetase (Mus musculus, UniProt P07607); experiment: Thymidylate synthetase activity, L1210; type: biochemical; settings: 60 min, N=6
T5 construct: preparing the appropriate L1210 cell homogenates or subcellular fractions; endogenous in cells; host or cells: L1210 murine lymphoid leukemia cells, homogenate or subcellular fraction
T5 sequence (P07607 whole entry): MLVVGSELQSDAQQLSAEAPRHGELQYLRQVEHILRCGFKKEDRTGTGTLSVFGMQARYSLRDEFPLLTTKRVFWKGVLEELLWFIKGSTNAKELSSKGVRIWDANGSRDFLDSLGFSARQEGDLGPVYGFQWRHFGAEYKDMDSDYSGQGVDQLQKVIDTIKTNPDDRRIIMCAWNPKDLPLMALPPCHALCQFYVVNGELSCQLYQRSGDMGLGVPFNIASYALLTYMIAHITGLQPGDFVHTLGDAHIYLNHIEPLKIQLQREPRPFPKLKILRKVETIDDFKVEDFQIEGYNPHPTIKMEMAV
Description: as §1

[5] = target: T6, Thymidine monophosphate kinase (Mus musculus, UniProt P97930); experiment: TMP kinase activity, L1210; type: biochemical; settings: 60 min, N=6
T6 construct: preparing the appropriate L1210 cell homogenates or subcellular fractions; endogenous in cells; host or cells: L1210 murine lymphoid leukemia cells, homogenate or subcellular fraction
T6 sequence (P97930 1-212): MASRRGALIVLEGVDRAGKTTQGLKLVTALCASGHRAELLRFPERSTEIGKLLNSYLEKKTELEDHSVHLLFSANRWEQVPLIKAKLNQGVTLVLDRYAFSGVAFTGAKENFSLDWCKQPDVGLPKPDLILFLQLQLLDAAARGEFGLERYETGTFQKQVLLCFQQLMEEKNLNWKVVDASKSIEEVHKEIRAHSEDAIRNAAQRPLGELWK
Description: as §1

Structure (SMILES)	cytotoxic activity, in words [1]	ED50 converted to [1] [nM]	RNA synthesis (L1210 RNA synthesis; 50 μM)	DNA polymerase α (DNA polymerase α; 25 μM)	DNA polymerase activity time course, in words (DNA polymerase α)	DNA polymerase α (DNA polymerase α; 100 μM)	tRNA polymerase (tRNA polymerase; 25 μM)	tRNA polymerase (tRNA polymerase; 50 μM)	Dihydrofolate reductase (Dihydrofolate reductase; 100 μM)	IMP dehydrogenase (IMP dehydrogenase; 25 μM)	Pyrimidine de novo synthesis ([2]; 25 μM)	Pyrimidine de novo synthesis ([2]; 50 μM)	Pyrimidine de novo synthesis ([2]; 100 μM)	Carbamyl phosphate synthetase ([3]; 25 μM)	Aspartate transcarbamylase ([4]; 25 μM)	Aspartate transcarbamylase ([4]; 50 μM)	Aspartate transcarbamylase ([4]; 100 μM)	Thymidylate synthetase (Thymidylate synthetase; 25 μM)	Thymidylate synthetase (Thymidylate synthetase; 50 μM)	Thymidine monophosphate kinase ([5]; 25 μM)	also measured
O=S(=O)(O)c1cc2c(O)c(c1)Cc1cc(S(=O)(=O)O)cc(c1O)Cc1cc(S(=O)(=O)O)cc(c1O)Cc1cc(S(=O)(=O)O)cc(c1O)Cc1cc(S(=O)(=O)O)cc(c1O)Cc1cc(S(=O)(=O)O)cc(c1O)C2 [GI-2029]	most potent activity	1362	91+5% of Control	70+3% of Control	activity remained suppressed at 60 and 90 min	44+3% of Control	103+5% of Control	98+5% of Control	127+6% of Control	270+5% of Control	99+6% of Control	96+ 5% of Control	93+7% of Control	78+5% of Control	100+5% of Control	100+5% of Control	98+6% of Control	92+5% of Control	89+6% of Control	118+6% of Control	DNA polymerase α (DNA polymerase α; 50 μM): 60+3% of Control; Dihydrofolate reductase (Dihydrofolate reductase; 50 μM): 108+5% of Control; IMP dehydrogenase (IMP dehydrogenase; 50 μM): 184+6% of Control; Carbamyl phosphate synthetase ([3]; 100 μM): 72+3% of Control; Thymidine monophosphate kinase ([5]; 50 μM): 50+5% of Control
COc1c2cc(S(=O)(=O)[O-])cc1Cc1cc(S(=O)(=O)[O-])cc(c1OC)Cc1cc(S(=O)(=O)[O-])cc(c1OC)Cc1cc(S(=O)(=O)[O-])cc(c1OC)Cc1cc(S(=O)(=O)[O-])cc(c1OC)Cc1cc(S(=O)(=O)[O-])cc(c1OC)Cc1cc(S(=O)(=O)[O-])cc(c1OC)Cc1cc(S(=O)(=O)[O-])cc(c1OC)C2.[Na+].[Na+].[Na+].[Na+].[Na+].[Na+].[Na+].[Na+] [GI-2021]		777	94+6% of Control	76+5% of Control	activity remained suppressed at 60 and 90 min	52+4% of Control	98+5% of Control	85+5% of Control	76+4% of Control	124+4% of Control	98+6% of Control		88+5% of Control	94+5% of Control	101+6% of Control	100+5% of Control	98+4% of Control	97+6% of Control	88+5% of Control	110+6% of Control	RNA synthesis (L1210 RNA synthesis; 25 μM): 109+6% of Control; RNA synthesis (L1210 RNA synthesis; 100 μM): 78+4% of Control; tRNA polymerase (tRNA polymerase; 100 μM): 76+4% of Control; dihydrofolate reductase activity reduced (Dihydrofolate reductase; 100 μM after hr): 24%; Carbamyl phosphate synthetase ([3]; 50 μM): 89+5% of Control; Thymidylate synthetase (Thymidylate synthetase; 100 μM): 82+4% of Control; Thymidine monophosphate kinase ([5]; 100 μM): 32+3% of Control
O=S(=O)(O)c1cc2c(O)c(c1)Cc1cc(S(=O)(=O)O)cc(c1O)Cc1cc(S(=O)(=O)O)cc(c1O)Cc1cc(S(=O)(=O)O)cc(c1O)Cc1cc(S(=O)(=O)O)cc(c1O)Cc1cc(S(=O)(=O)O)cc(c1O)Cc1cc(S(=O)(=O)O)cc(c1O)Cc1cc(S(=O)(=O)O)cc(c1O)C2 [GI-2041]	most potent activity	1263		85+5% of Control	returned to normal at 90 min		108+6% of Control		92+5% of Control	131+6% of Control	112+6% of Control	97+5% of Control		142+6% of Control	106+5% of Control		94+5% of Control	105+5% of Control	103+6% of Control	80+5% of Control	RNA synthesis (L1210 RNA synthesis; 25 μM): 130+5% of Control; Dihydrofolate reductase (Dihydrofolate reductase; 25 μM): 105+5% of Control; IMP dehydrogenase (IMP dehydrogenase; 100 μM): 70+4% of Control; Carbamyl phosphate synthetase ([3]; 50 μM): 82+5% of Control; Thymidylate synthetase (Thymidylate synthetase; 100 μM): 92+5% of Control; Thymidine monophosphate kinase ([5]; 50 μM): 41+3% of Control
